Laboratory results taken from the NIST ThermoML archive (doi:10.1016/j.fluid.2010.01.007).
Numbers after ± are expanded uncertainties.

Assay: activity coefficient (dimensionless); of the first substance listed, at infinite dilution; xn = mol fraction of the nth substance listed
Conditions: Liquid, Chromatography, x1 = 0

SMILES | activity coefficient (325.2 K) | activity coefficient (334.8 K) | activity coefficient (344.3 K) | activity coefficient (353.9 K) | activity coefficient (363.4 K)
CCCCC1CO1 (stereo unspecified) [1,2-epoxyhexane] + CCCCn1cc[n+](C)c1.F[B-](F)(F)F | 5.7 ± 0.2 | 5.31 ± 0.19 | 5.3 ± 0.19 | 5.14 ± 0.18 | 5.2 ± 0.18
CCCCC1CO1 (stereo unspecified) [1,2-epoxyhexane] + CCCCn1cc[n+](C)c1.F[P-](F)(F)(F)(F)F | – | 1.94 ± 0.07 | 2.19 ± 0.08 | 2.2 ± 0.08 | 2.14 ± 0.08
CC1(C)CO1 [2,2-dimethyloxirane] + CCCCn1cc[n+](C)c1.F[B-](F)(F)F | 2.19 ± 0.08 | 2.13 ± 0.07 | 2.11 ± 0.07 | 2.06 ± 0.07 | 2.18 ± 0.08
CC1(C)CO1 [2,2-dimethyloxirane] + CCCCn1cc[n+](C)c1.F[P-](F)(F)(F)(F)F | – | 1.09 ± 0.03 | 1.12 ± 0.03 | 1.21 ± 0.03 | 1.19 ± 0.04
CCC1CO1 (stereo unspecified) [ethyloxirane] + CCCCn1cc[n+](C)c1.F[B-](F)(F)F | 2.62 ± 0.09 | 2.14 ± 0.08 | 2.08 ± 0.07 | 2.05 ± 0.07 | 2.1 ± 0.07
CCC1CO1 (stereo unspecified) [ethyloxirane] + CCCCn1cc[n+](C)c1.F[P-](F)(F)(F)(F)F | – | 1.13 ± 0.03 | 1.13 ± 0.03 | 1.19 ± 0.03 | 1.16 ± 0.03
CC1CO1 (stereo unspecified) [methyloxirane] + CCCCn1cc[n+](C)c1.F[B-](F)(F)F | 1.35 ± 0.04 | 1.33 ± 0.04 | 1.27 ± 0.03 | 1.32 ± 0.04 | 1.41 ± 0.04
CC1CO1 (stereo unspecified) [methyloxirane] + CCCCn1cc[n+](C)c1.F[P-](F)(F)(F)(F)F | – | 0.838 ± 0.021 | 0.828 ± 0.021 | 0.893 ± 0.021 | 0.872 ± 0.024
